From patent US20170253601A1, “Substituted Pyrrolidine Compounds” (EPIZYME, INC., priority 2014, published 2017)

target: T1, human SMYD3 (Homo sapiens, UniProt Q9H7B4); test: SMYD3 Biochemical Assay (3H-SAM, MEKK2 protein substrate, SPA); conditions: Table 1; average of n = 1 to n = 50; read-out: SMYD3 Biochem IC50
T1 construct: Expressed full-length human His-tagged SMYD3 protein was purified from cell paste; His6 (cleaved yes); TEV and SUMO cleavage sites (cleaved yes); made in house; host or cells: E. coli BL21 codonplus RIL
T1 sequence (Q9H7B4 1-428): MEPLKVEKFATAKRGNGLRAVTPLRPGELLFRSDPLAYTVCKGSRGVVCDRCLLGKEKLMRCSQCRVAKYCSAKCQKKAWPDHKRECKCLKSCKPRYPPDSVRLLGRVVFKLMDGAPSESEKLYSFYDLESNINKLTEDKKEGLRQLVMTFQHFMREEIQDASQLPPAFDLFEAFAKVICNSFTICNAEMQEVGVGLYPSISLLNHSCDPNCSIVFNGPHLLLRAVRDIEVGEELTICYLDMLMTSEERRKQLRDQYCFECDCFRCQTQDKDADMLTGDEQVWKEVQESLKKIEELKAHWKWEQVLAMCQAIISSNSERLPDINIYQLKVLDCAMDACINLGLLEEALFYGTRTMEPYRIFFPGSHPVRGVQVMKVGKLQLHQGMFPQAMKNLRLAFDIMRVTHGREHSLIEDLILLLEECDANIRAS
Description: S-adenosylmethionine (SAM), S-adenosylhomocysteine (SAH), Tris, Tween20, dimethylsulfoxide (DMSO), bovine skin gelatin (BSG), and Tris(2-carboxyethyl)phosphine hydrochloride solution (TCEP) were purchased from Sigma-Aldrich at the highest level of purity possible. ^3H-SAM was purchase from American Radiolabeled Chemicals with a specific activity of 80 Ci/mmol. 384-well opaque white OptiPlates and SPA beads (Perkin Elmer, catalog # RPNQ0013) were purchased from PerkinElmer.
N-terminally GST-tagged MEKK2 (MAP3K2) protein corresponding to reference sequence AAF63496.3 was purchased from Life Technologies (catalog # PV4010). This protein was expressed in High Five insect cells and purified to >85% purity. Protein identity was confirmed by MS/MS analysis after proteolytic digestion. The protein sequence used was:
Full-length human SMYD3 isoform 1 (BAB86333) was inserted into a modified pET21b plasmid containing a His6 tag and TEV and SUMO cleavage sites. Because two common variants of SMYD3 exist in the population, site directed mutagenesis was subsequently performed to change amino acid 13 from an asparagine to a lysine, resulting in plasmid pEPZ533. A lysine at position 13 conforms to the more commonly occurring sequence (NP_001161212).
E. coli (BL21 codonplus RIL strain, Stratagene) were transformed with plasmid pEPZ553 by mixing competent cells and plasmid DNA and incubating on ice for 30 minutes followed by heat shock at 42° C. for 1 minute and cooling on ice for 2 minutes. Transformed cells were grown and selected on LB agar with 100 μg/mL ampicillin and 17 μg/mL chloramphenicol at 37° C. overnight. A single clone was used to inoculate 200 mL of LB medium with 100 μg/mL ampicillin and 17 μg/mL chloramphenicol and incubated at 37° C. on an orbital shaker at 180 rpm. Once in log growth, the culture was diluted 1:100 into 2 L of LB medium and grown until OD600 was about 0.3 after which the culture was incubated at 15° C. and 160 rpm. Once OD600 reached about 0.4, IPTG was added to a final concentration of 0.1 mM and the cells were grown overnight at 15° C. and 160 rpm. Cells were harvested by centrifugation at 8000 rpm, for 4 minutes at 4° C. and stored at −80° C. for purification.
Expressed full-length human His-tagged SMYD3 protein was purified from cell paste by Nickel affinity chromatography after equilibration of the resin with Buffer A (25 mM Tris, 200 mM NaCl, 5% glycerol, 5 mM β-mercaptoethanol, pH7.8). The column was washed with Buffer B (Buffer A plus 20 mM imidazole) and His-tagged SMYD3 was eluted with Buffer C (Buffer A plus 300 mM imidazole). The His tag, TEV and SUMO cleavage sites were removed generating native SMYD3 by addition of ULP1 protein at a ratio of 1:200 (ULP1:SMYD3). Imidazole was removed by dialysis overnight in Buffer A. The dialyzed solution was applied to a second Nickel column and the native SMYD3 protein was collected from the column flow-through. The flow-through was dialyzed in Buffer D (25 mM Tris, 5% glycerol, 5 mM β-mercaptoethanol, 50 mM NaCl, pH7.8) and ULP1 was removed using a Q sepharose fast flow column. SMYD3 was eluted in Buffer A and further purified using an S200 size-exclusion column equilibrated with Buffer A. SMYD3 was concentrated to 2 mg/mL with a final purity of 89%.
The assays were all performed in a buffer consisting of 25 mM Tris-Cl pH 8.0, 1 mM TCEP, 0.005% BSG, and 0.005% Tween 20, prepared on the day of use. Compounds in 100% DMSO (1 ul) were spotted into a 384-well white opaque OptiPlate using a Bravo automated liquid handling platform outfitted with a 384-channel head (Agilent Technologies). DMSO (1 ul) was added to Columns 11, 12, 23, 24, rows A-H for the maximum signal control and 1 ul of SAH, a known product and inhibitor of SMYD3, was added to columns 11, 12, 23, 24, rows I-P for the minimum signal control. A cocktail (40 ul) containing the SMYD3 enzyme was added by Multidrop Combi (Thermo-Fisher). […]

IC50 [µM] | Structure (SMILES)
84 | CN1CCC(NC(=O)c2cc(C3CC3)on2)C1 (stereo not shown) [compound 29, 5-cyclopropyl-N-(1-methylpyrrolidin-3-yl)isoxazole-3-carboxamide]
> 10 | NCCCC(=O)N1CC[C@@H](NC(=O)c2cc(C3CC3)on2)C1 [compound 30, (R)-N-(1-(4-amino-butanoyl)pyrrolidin-3-yl)-5-cyclopropyl-isoxazole-3-carboxamide]
> 10 | N[C@H]1CC[C@H](C(=O)N2CC[C@@H](NC(=O)c3cc(C4CC4)on3)C2)CC1 [compound 31, N-((R)-1-((1r,4r)-4-aminocyclohexane-1-carbonyl)pyrrolidin-3-yl)-5-cyclopropyl-isoxazole-3-carboxamide]
> 10 | NCCCC(=O)N1CC[C@H](NC(=O)c2cc(C3CC3)on2)C1 [compound 32, (S)-N-(1-(4-amino-butanoyl)pyrrolidin-3-yl)-5-cyclopropyl-isoxazole-3-carboxamide]
3.25 | N[C@H]1CC[C@H](C(=O)N2CC[C@H](NC(=O)c3cc(C4CC4)on3)C2)CC1 [compound 33, N-((S)-1-((1r,4s)-4-aminocyclohexane-1-carbonyl)pyrrolidin-3-yl)-5-cyclopropyl-isoxazole-3-carboxamide]
5.8 | NCCCS(=O)(=O)N1CC[C@@H](NC(=O)c2cc(C3CC3)on2)C1 [compound 34, (R)-N-(1-((3-amino-propyl)sulfonyl)pyrrolidin-3-yl)-5-cyclopropyl-isoxazole-3-carboxamide]
4.43 | NCCCS(=O)(=O)N1CC[C@H](NC(=O)c2cc(C3CC3)on2)C1 [compound 35, (S)-N-(1-((3-amino-propyl)sulfonyl)pyrrolidin-3-yl)-5-cyclopropyl-isoxazole-3-carboxamide]
